The subject of this assay is J:CXCR1 cells (Jurkat cells stably transfected with CXCR1). Kind of assay: J:CXCR1 cell migration induced by CXCL6, inhibition by peptide. Format: cell-based, human. The note with it: peptide 10 uM; CXCL6 at EC80; Dunnett's test. Here is the method:
Cell lines were confirmed mycoplasma free by monthly testing using a MycoAlert^TM kit (LT07-118, Lonza) following the manufacturer’s instructions. THP1 cells: THP1 cells (ECACC 88081201, a human monocyte leukemia cell line[51]) were obtained from ECACC and were cultured in T175 flasks at 0.3-1 × 10^6 cells/mL in Roswell Park Memorial Institute (RPMI) 1640 medium (R0883, Sigma) with 10% FBS (F9665, Sigma) and 5mM L-glutamine (G7513, Sigma), 37 °C, 5% CO2. J:CXCR1 cells: The J:CXCR1 cell line was cultured in the same manner as THP1 cells at 0.15-1 × 10^6 cells per mL[37]. Activated T-cells: T-cells were isolated, activated and expanded as follows. Briefly, density gradient centrifugation using Lymphoprep^TM density gradient medium (07801, […] Technologies) and a SepMate^TM isolation tube (85450, […] Technologies) was used to isolate peripheral blood mononuclear cells from human leukocyte cones. Two rounds of purification using a human CD8 + T-cell isolation kit (480011, BioLegend) were used to isolate CD8 + T-cells from peripheral blood mononuclear cells. Activation of CD8 + T-cells was performed in ImmunoCult^TM-XF T-cell expansion medium (10982, […] Technologies) with an anti-CD3/anti-CD28 T-cell activator at 25 μl/ml (10991, […] Technologies), supplemented with 10 ng/ml recombinant human IL-2 (200-02, PeproTech) with 1% penicillin/streptomycin. […] The final pellet was resuspended in 1 mL of MACS buffer per 5 mL of initial blood volume and counted using cell size FSC-H/SSC-H parameters with gate settings previously defined by immunostaining (see below). […]
Cell counts were determined using an ATTUNE NxT Flow Cytometer with Cytkick autosampler (ThermoFisher), based on cell size parameters FSC-H/SSC-H, with previously defined gate settings. FSC-H/SSC-H gate settings for primary white blood cells from buffy coats were determined using flow cytometry to establish the granulocyte, monocyte and lymphocyte populations (Supplementary Fig. 13). […]

In the case of “EEDDYWAYAPLTCYFT [HD2T6W, HD2 point mutant]”, the “inhibition of CXCL6-induced migration of J:CXCR1 cells compared to parental HD2” value is given as “significant improvement in inhibition”.
